Test results: patent publication US11530223B2, “Spiro-lactam NMDA receptor modulators and uses thereof” (Aptinyx Inc., priority 2016, dated 2022)
Where two headings read alike, the source gives them in different places.

What was measured:
NMDAR2A = target: T1, NMDAR2A (Homo sapiens, UniProt Q12879); test: [3H]MK-801 binding in NMDAR2A expressing HEK cell membranes; format: biochemical; conditions: 50 μM glutamate; for Emax: read-out: A: % maximal [3H]MK-801 binding relative to 1 mM glycine; for EC50: read-out: B: log EC50 (converted)
T1 construct: expressed in transfected cells; host or cells: HEK cells (membrane extract)
Method: (§1) Assays were conducted as described by Moskal et al., “GLYX-13: a monoclonal antibody-derived peptide that acts as an N-methyl-D-aspartate receptor modulator,” Neuropharmacology, 49, 1077-87, 2005. These studies were designed to determine if the test compounds act to facilitate NMDAR activation in NMDAR2A, NMDAR2B, NMDAR2C or NMDAR2D expressing HEK cell membranes as measured by increases in [^3H]MK-801 binding.
(§2) In the assay, 300 μg of NMDAR expressing HEK cell membrane extract protein was preincubated for 15 minutes at 25° C. in the presence of saturating concentrations of glutamate (50 μM) and varying concentrations of test compound (1×10^−15M−1×10^−7M), or 1 mM glycine. Following the addition of 0.3 μCi of [^3H]MK-801 (22.5 Ci/mmol), reactions were again incubated for 15 minutes at 25° C. (nonequilibrium conditions). Bound and free [^3H]MK-801 were separated via rapid filtration using a Brandel apparatus.
(§3) In analyzing the data, the DPM (disintegrations per minute) of [^3H]MK-801 remaining on the filter were measured for each concentration of test compound or for 1 mM glycine. The DPM values for each concentration of a ligand (N=2) were averaged. The baseline value was determined from the best fit curve of the DPM values modeled using the GraphPad program and the log(agonist) vs. response (three parameters) algorithm was then subtracted from all points in the dataset. The % maximal [^3H]MK-801 binding was then calculated relative to that of 1 mM glycine: all baseline subtracted DPM values were divided by the average value for 1 mM glycine. The EC50 and % maximal activity were then obtained from the best fit curve of the % maximal [^3H]MK-801 binding data modelled using the GraphPad program and the log(agonist) vs. response (three parameters) algorithm.
(§4) The tables below summarize the results for the wild type […] NMDAR2A, NMDAR2B, NMDAR2C, and NMDAR2D, and whether the compound is not an agonist (−), is an agonist (+), or is a strong agonist (++), where column A is based on the % maximal [^3H]MK-801 binding relative to 1 mM glycine (−=0; <100%=+; and >100%=++); and column B is based on log EC50 values (0=−; ≥1×10^−9 M (e.g., −8)=+; and <1×10^−9 M (e.g., −10)=++).

rats = test: positive emotional learning (PEL) test, 50-kHz ultrasonic vocalizations; format: in vivo; conditions: rat, PO, one hour after administration
Method: Experiments were conducted as described in Burgdorf et al., “The effect of selective breeding for differential rates of 50-kHz ultrasonic vocalizations on emotional behavior in rats,” Devel. Psychobiol., 51:34-46 (2009). Rat 50-kHz ultrasonic vocalization (hedonic USVs) is a validated model for the study of positive affective state and is best elicited by rough-and-tumble play.
The PEL assay measures the acquisition of positive (hedonic) 50-kHz ultrasonic vocalizations (USVs) to a social stimulus, heterospecific rough and tumble play stimulation. Heterospecific rough-and-tumble play stimulation was administered by the experimenter's right hand. One hour after administration of test compound or vehicle negative control (0.5% sodium carboxymethyl cellulose in 0.9% sterile saline vehicle), animals received 3 min of heterospecific rough-and-tumble play that consisted of alternating 15 sec blocks of heterospecific play and 15 sec of no-stimulation. High frequency ultrasonic vocalizations (USVs) were recorded and analyzed by sonogram with Avasoft SASlab Pro (Germany) as previously described by Burgdorf et al., “Positive emotional learning is regulated in the medial prefrontal cortex by GluN2B-containing NMDA receptors,” Neuroscience, 192:515-523 (2011). Frequency modulated 50-kHz USVs that occurred during each of the no-stimulation periods were quantified to measure PEL. Animals were not habituated to play stimulation before testing. Positive emotional learning was measured during the conditioned stimulus (CS) trials preceding the tickle unconditioned stimulus (UCS) trials. Animals received 15 second trials consisting of 6 CS and 6 UCS trials each (3 min total).
The table below summarizes the findings. As each experiment includes its own vehicle group, an example (typical) vehicle score is shown. Max effect (mean number of 50 kHz USVs per 15 seconds) is reported as ^: <6.0; *: 6.0-7.6; **: 7.7-10; ***:10.1-20

NMDAR2B = target: T2, NMDAR2B (Homo sapiens, UniProt Q13224); test: [3H]MK-801 binding in NMDAR2B expressing HEK cell membranes; format: biochemical; set-up: key to B: log EC50: 0=−; ≥1×10^−9 M (e.g., −8)=+; <1×10^−9 M (e.g., −10)=++; conditions: 50 μM glutamate; for Emax: read-out: A: % maximal [3H]MK-801 binding relative to 1 mM glycine; for EC50: read-out: B: log EC50 (converted)
T2 construct: expressed in transfected cells; host or cells: HEK cells (membrane extract)
Method: as §1, §2, §3, §4

NMDAR2D [1] = target: T3, NMDAR2D (Homo sapiens, UniProt O15399); test: [3H]MK-801 binding in NMDAR2D expressing HEK cell membranes; format: biochemical; set-up: key to B: log EC50: 0=−; ≥1×10^−9 M (e.g., −8)=+; <1×10^−9 M (e.g., −10)=++; conditions: for B: log EC50: second part of table, c4, taken as NMDAR2D
T3 construct: expressed in transfected cells; host or cells: HEK cells (membrane extract)
Method: as §1, §2, §3, §4

IV pharmacokinetics = format: in vivo; conditions: Sprague Dawley rats; for C0: normal saline (first four compounds: 5% NMP, 5% Solutol HS, 90% normal saline); for Vd: read-out: Vss
Method: Sprague Dawley rats were dosed intravenously using a normal saline formulation containing 2 mg/kg of the compounds identified in the below table (except for the first four compounds that were delivered in 5% NMP, 5% Solutol® HS and 90% normal saline formulation). The table below summarizes the results of the IV pharmacokinetics.

[2] = oral pharmacokinetics (plasma, brain, CSF); format: in vivo; conditions: Sprague Dawley rats, per os 10 mg/kg; for Tmax: normal saline (first four compounds: 5% NMP, 5% Solutol HS, 90% normal saline)
Method: Plasma, brain, and CSF samples were analyzed at various time points over a 24 hour period.

NMDAR2D [3] = target: T4, NMDAR2D (Homo sapiens, UniProt O15399+Q05586); test: [3H]MK-801 binding in NMDAR2D expressing HEK cell membranes; format: biochemical; set-up: key to B: log EC50: 0=−; ≥1×10^−9 M (e.g., −8)=+; <1×10^−9 M (e.g., −10)=++; conditions: second part of table; c3, taken as NMDAR2D; read-out: A: % maximal [3H]MK-801 binding relative to 1 mM glycine
T4 construct: expressed in transfected cells; host or cells: HEK cells (membrane extract)
Method: as §1, §2, §3, §4

Sprague Dawley rats = test: Porsolt forced swim test; format: in vivo; conditions: 0.1 mg/kg; for % reduction in float time: relative to vehicle group
Method: A non-clinical in vivo pharmacology study (Porsolt assay) was performed to measure antidepressant-like effects. A negative control (0.5% sodium carboxymethyl cellulose in 0.9% sterile saline vehicle) and a positive control (fluoxetine) are shown for comparison against test compound. The study allowed for the evaluation of the effects of each compound on the Porsolt forced swim test as assessed by the rats' response (reduced floating time) during a 5-minute swimming test.
Male 2-3 month old Sprague Dawley rats were used (Harlan, Indianapolis, Ind.). Rats were housed in Lucite cages with aspen wood chip bedding, maintained on a 12:12 light:dark cycle (lights on at 5 AM), and given ad libitum access to Purina lab chow (USA) and tap water throughout the study.
The Porsolt forced swim test adapted for use in rats was performed as described by Burgdorf et al., (The long-lasting antidepressant effects of rapastinel (GLYX-13) are associated with a metaplasticity process in the medial prefrontal cortex and hippocampus. Neuroscience 308:202-211, 2015). Animals were placed in a 46 cm tall×20 cm in diameter clear glass tube filled to 30 cm with tap water (23±1° C.) for 15 min on the first day (habituation) and 5 min on the subsequent test day. Positive control fluoxetine was dosed 3 times (24 h, 5 h and 1 h) prior to testing. Animals were tested 1 h or 24 h post-dosing with the test compounds or vehicle. Animals received a 15 min habituation session 1 day before the 5 min test. A subset of compounds tested at 1 h post-dosing were retested at 1 wk post-dosing in the same sets of animals. Water was changed after every other animal. Animals were videotaped, and floating time as defined as the minimal amount of effort required to keep the animals head above water was scored offline by a blinded experimenter with high inter-rater reliability (Pearson's r>0.9).
Each compound tested at dose level shown. Significance vs. vehicle group for each experiment is marked. […] A compound marked “No” was not statistically significant from vehicle. Data was averaged for test compound and vehicle groups (N approximately 8 per group) and the percent reduction in floating for group treated with test compound relative to group treated with vehicle is shown.

[4] = Sprague Dawley, rat, in vivo, iv, 2 mg/kg
[5] = Sprague Dawley, rat, in vivo, iv, 2 mg/kg, read-out: C0
[6] = Sprague Dawley, rat, plasma, po, 10 mg/kg
[7] = Sprague Dawley, rat, plasma, po, 10 mg/kg, read-out: Tmax
[8] = Sprague Dawley, rat, plasma, po, 10 mg/kg, plasma, read-out: Cmax

T1 sequence (Q12879 23-1464, species assumed, other chains not shown): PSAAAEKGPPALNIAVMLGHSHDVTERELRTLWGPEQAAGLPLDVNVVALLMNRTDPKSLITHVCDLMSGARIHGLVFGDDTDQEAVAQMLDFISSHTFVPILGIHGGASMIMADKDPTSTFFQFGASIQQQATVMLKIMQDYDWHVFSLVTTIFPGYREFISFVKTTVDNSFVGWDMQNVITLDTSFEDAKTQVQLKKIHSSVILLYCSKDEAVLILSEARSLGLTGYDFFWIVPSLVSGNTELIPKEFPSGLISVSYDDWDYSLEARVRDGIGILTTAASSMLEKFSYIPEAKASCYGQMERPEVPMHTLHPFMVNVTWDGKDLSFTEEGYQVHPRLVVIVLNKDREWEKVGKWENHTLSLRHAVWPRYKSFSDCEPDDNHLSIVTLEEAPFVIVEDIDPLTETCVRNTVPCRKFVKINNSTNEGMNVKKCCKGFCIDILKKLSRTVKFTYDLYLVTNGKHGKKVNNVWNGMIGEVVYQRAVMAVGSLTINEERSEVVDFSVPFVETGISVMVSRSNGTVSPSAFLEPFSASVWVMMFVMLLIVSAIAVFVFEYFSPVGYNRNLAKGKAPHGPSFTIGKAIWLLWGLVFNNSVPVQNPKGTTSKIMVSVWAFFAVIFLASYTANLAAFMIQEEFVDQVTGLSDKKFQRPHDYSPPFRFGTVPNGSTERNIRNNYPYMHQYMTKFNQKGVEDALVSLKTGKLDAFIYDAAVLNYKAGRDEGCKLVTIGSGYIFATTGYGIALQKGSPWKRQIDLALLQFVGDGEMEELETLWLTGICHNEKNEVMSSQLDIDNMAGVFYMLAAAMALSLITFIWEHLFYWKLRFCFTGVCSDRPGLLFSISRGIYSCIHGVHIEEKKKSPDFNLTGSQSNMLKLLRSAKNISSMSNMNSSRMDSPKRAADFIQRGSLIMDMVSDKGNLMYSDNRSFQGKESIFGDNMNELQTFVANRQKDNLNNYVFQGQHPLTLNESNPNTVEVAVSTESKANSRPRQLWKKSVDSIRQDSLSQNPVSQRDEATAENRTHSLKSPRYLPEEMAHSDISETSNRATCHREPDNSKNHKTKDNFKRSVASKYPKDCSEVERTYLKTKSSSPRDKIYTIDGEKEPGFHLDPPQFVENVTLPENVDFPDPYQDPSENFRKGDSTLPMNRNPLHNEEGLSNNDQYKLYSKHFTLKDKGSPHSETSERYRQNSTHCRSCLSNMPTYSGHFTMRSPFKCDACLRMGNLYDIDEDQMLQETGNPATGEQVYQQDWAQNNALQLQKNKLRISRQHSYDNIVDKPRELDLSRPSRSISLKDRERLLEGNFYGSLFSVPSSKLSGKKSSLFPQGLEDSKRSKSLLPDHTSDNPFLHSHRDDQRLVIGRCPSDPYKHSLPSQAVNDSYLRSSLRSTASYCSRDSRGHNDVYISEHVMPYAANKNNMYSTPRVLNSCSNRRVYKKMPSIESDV
T2 sequence (Q13224 27-1484, species assumed, other chains not shown): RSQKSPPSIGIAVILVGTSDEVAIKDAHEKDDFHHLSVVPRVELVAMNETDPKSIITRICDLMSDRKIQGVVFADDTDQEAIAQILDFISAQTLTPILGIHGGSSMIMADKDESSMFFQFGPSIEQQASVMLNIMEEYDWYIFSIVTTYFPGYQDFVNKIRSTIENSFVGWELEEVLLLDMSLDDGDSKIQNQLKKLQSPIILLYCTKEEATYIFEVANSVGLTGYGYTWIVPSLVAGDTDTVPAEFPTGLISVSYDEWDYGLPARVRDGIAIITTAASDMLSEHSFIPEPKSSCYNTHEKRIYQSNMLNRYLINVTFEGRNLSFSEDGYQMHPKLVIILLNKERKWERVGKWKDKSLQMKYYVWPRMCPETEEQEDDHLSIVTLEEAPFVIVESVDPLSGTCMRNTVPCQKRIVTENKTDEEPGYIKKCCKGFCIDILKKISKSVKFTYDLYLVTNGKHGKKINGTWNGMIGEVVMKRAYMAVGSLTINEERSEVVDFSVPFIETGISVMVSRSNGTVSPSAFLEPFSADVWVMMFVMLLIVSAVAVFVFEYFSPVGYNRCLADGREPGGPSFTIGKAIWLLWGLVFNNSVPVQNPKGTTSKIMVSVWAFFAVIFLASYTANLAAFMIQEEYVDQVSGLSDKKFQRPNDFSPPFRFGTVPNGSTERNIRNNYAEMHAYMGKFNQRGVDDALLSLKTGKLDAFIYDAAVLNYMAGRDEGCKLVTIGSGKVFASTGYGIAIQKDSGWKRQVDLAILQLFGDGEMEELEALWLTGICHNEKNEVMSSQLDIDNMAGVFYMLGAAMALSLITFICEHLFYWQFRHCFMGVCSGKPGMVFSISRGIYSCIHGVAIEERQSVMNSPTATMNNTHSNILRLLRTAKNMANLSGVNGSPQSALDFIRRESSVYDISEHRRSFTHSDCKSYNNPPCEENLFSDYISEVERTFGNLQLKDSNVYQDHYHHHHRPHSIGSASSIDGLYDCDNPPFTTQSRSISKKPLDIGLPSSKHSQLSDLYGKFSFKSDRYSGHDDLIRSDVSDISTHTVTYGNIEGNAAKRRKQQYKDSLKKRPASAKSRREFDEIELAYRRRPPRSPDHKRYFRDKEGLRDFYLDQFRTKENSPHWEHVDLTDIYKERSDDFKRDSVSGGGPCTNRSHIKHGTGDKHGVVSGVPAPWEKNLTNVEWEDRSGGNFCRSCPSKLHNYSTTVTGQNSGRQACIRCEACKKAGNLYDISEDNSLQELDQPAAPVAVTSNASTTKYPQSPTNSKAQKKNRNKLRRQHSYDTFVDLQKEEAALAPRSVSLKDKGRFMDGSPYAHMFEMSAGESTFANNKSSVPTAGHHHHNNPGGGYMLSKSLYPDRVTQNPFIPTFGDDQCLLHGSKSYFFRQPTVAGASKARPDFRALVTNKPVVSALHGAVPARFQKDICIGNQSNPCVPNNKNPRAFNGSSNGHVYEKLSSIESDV
T3 sequence (O15399 28-1336, species assumed, other chains not shown): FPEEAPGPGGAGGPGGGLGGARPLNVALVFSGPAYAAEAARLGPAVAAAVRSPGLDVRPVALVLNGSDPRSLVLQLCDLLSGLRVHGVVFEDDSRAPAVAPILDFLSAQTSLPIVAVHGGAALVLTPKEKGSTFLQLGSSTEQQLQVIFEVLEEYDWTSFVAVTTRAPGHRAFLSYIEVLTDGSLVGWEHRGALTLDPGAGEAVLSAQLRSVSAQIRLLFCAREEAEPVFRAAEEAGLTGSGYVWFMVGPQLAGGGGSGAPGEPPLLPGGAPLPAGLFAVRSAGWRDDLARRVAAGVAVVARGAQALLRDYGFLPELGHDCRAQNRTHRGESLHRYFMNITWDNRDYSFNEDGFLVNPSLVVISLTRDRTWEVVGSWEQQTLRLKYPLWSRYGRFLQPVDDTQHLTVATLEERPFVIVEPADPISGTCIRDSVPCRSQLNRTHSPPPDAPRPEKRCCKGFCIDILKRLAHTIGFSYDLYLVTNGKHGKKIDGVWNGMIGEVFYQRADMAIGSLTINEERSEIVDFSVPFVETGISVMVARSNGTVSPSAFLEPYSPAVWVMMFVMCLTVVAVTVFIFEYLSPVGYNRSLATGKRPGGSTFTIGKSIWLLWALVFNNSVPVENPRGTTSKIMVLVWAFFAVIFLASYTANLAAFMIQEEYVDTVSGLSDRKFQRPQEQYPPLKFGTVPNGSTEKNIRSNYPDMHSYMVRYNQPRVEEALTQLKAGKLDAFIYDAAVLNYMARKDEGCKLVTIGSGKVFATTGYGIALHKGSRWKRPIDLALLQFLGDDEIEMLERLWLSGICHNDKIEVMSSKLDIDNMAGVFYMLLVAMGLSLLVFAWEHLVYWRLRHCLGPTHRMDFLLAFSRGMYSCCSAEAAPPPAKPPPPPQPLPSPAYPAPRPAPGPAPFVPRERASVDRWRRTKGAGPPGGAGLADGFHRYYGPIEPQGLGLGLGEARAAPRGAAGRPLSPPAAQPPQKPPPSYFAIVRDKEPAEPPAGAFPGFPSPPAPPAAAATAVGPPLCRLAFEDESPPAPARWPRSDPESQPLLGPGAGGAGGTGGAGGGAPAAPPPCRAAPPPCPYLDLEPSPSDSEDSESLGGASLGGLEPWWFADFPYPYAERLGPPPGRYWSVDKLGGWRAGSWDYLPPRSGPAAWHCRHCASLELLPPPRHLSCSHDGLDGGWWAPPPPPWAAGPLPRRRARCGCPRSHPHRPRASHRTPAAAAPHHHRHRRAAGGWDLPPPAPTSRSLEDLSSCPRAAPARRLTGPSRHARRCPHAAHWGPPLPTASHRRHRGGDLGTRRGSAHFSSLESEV
T4 sequence (O15399 28-1336, species assumed, other chains not shown): as above

Row | SMILES | Emax (NMDAR2A) [%] | EC50 (NMDAR2A) [nM] | Max Effect (mean number of 50 kHz USVs per 15 seconds) (rats; dose 0.1 mg/kg) | Emax (NMDAR2B) [%] | EC50 (NMDAR2B) [nM] | T1/2 (IV pharmacokinetics; intravenous 2 mg/kg) [h] | AUC(0-t) (IV pharmacokinetics; [4]) [ng·h/mL] | clearance (IV pharmacokinetics; [4]) [mL/min/kg] | C0 (IV pharmacokinetics; [5]) [ng/mL] | Vd (IV pharmacokinetics; [4]) [L/kg] | Max Effect (mean number of 50 kHz USVs per 15 seconds) (rats; dose .001-1 mg/kg) | CSF Cmax [2] [ng/mL] | Brain Cmax [2] [ng/mL] | AUC(0-t) [2, 6] [ng·h/mL] | bioavailability [2, 6] [%] | Tmax [2, 7] [h] | Cmax [2, 8] [ng/mL] | B: log EC50 (NMDAR2B) | A: % maximal [3H]MK-801 binding relative to 1 mM glycine (NMDAR2A) | B: log EC50 (NMDAR2D [1]) | further results
1 | CC(C)(C)OC(=O)N1CCCC12CCNC2=O (single isomer, unassigned) [RT-1, tert-butyl 6-oxo-1,7-diazaspiro[4.4]nonane-1-carboxylate] | < 100 | < 1 | ** (**: 7.7-10) | < 100 | < 1 |  |  |  |  |  |  |  |  |  |  |  |  |  |  |  | 
2 | O=C1NCCC12CCCNC2 (stereo not drawn) [RB-1, 2,7-diazaspiro[4.5]decan-1-one] | < 100 | < 1 |  | > 100 |  | 3.35 | 1260 | 25.8 | 2070 | 2.79 | *** (***:10.1-20) | 27.4 | 40.2 | 3290 | 52 | 1.17 | 825 | − |  |  | A: % maximal [3H]MK-801 binding relative to 1 mM glycine (NMDAR2D [1]; second part of table (r25-r35), c3, taken as NMDAR2D): + (<100%=+)
3 | O=C1NCCC12CCCN2 (single isomer, unassigned) [RW-1, 1,7-diazaspiro[4.4]nonan-6-one] | < 100 | ≥ 1 | ** (**: 7.7-10) | < 100 | < 1 |  |  |  |  |  |  | 853 |  |  |  | 1 | 4070 |  |  |  | 
4 | O=C1NCCC12CCCNC2 (stereo not drawn) [RC-1, 2,7-diazaspiro[4.5]decan-1-one] |  | < 1 |  |  | < 1 | 1.36 |  |  |  |  | *** (***:10.1-20) | 20.8 | 27.6 |  |  |  |  |  | + (<100%=+) | − | AUClast (IV pharmacokinetics; intravenous 2 mg/kg): 1511.4 ng·h/mL; Cl (IV pharmacokinetics; intravenous 2 mg/kg): 21.81 mL/min/kg; Vss (IV pharmacokinetics; intravenous 2 mg/kg): 1.84 L/kg; C0 (IV pharmacokinetics; intravenous 2 mg/kg): 2013.4 ng/mL; % F [2]: 49%; AUClast [2]: 3668.7 ng·h/mL; Tmax [2]: 1.67 h; Cmax ([2]; plasma): 990.2 ng/mL; A: % maximal [3H]MK-801 binding relative to 1 mM glycine (NMDAR2B): ++ (>100%=++)
5 | O=C1NCCC12CCCCN2 (stereo not drawn) [RG-601] | < 100 | < 1 |  | < 100 | < 1 |  | 2280 | 13.5 | 2850 | 1.14 |  | 1151 | 1447 | 9510 | 83 | 0.83 | 3990 |  |  |  | Emax (NMDAR2D [3]): > 100%; half-life (IV pharmacokinetics; [4]): 1.16 h; Significance vs. vehicle (Sprague Dawley rats; 1 wk post-dose): Yes (statistically significant (p<=0.05) from vehicle at dose level shown); % reduction in float time (Sprague Dawley rats; 1 wk post-dose): 34.4%; Significance vs. vehicle (Sprague Dawley rats; 1 h post-dose, floating time in 5 min test): Yes (statistically significant (p<=0.05) from vehicle at dose level shown); % reduction in float time (Sprague Dawley rats; 1 h post-dose): 82.7%
6 | CC(C)(C)OC(=O)N1CCCCC12CCNC2=O (stereo not drawn) [RG-605] |  | < 1 |  |  |  |  | 1580 | 21 | 3360 | 0.53 |  | 1211 | 733 |  |  |  |  | − | + (<100%=+) | − | Emax (NMDAR2D [3]): 0%; half-life (IV pharmacokinetics; [4]): 0.3 h; % F [2]: 81%; AUClast [2]: 6370 ng·h/mL; Cmax ([2]; plasma): 6478 ng/mL; Tmax ([2]; rat, plasma, po, read-out: Tmax): 0.25 h; A: % maximal [3H]MK-801 binding relative to 1 mM glycine (NMDAR2B): − (−=0)
